In brackets after ≈: the same amount, converted by molar mass.
Assays:
[1] = Cytotoxicity against human 9KB cells; format: functional; conditions: read-out: ED50 (the source's name)
[2] = Cytotoxicity against mouse 9PS cells; format: functional; conditions: read-out: ED50 (the source's name)
Artemia = experiment: Toxicity in brine shrimp; format: organism-based; conditions: in vivo
[3] = test system: Agrobacterium tumefaciens; experiment: Antitumor activity against Agrobacterium tumefaciens-induced crown gall tumors assessed as inhibition of tumor development in potato by crown gall tumor potato disk test; format: functional; set-up: scale not given: the % may be the effect or the level left

C=C(C)[C@H]1O[C@@H]1c1c(OC)ccc2ccc(=O)oc12 [PHEBALOSIN]
EC50 [1]: > 20 µg/mL | EC50 [2]: 27 µg/mL (≈ 105 µM) | LC50 (Artemia): 47 ppm | Activity [3]: -70%

Source: ChEMBL document CHEMBL1149001, “Phebalosin from the bark of Micromelum minutum” (J Nat Prod, 1986)
